Several values for one entry are separate records, joined by “and”; a condition that tells them apart may be missing. Equal entries are not always repeated.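 Grown in 96-well plates, cells were treated for 48 hours with each compound at five concentrations. Insufficient inhibition: endpoint recorded as highest concentration tested. GI50: concentration for 50% inhibition of growth. TGI marks complete inhibition of growth.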
Key:
Assay in all cases: DTP human tumour cell line panel, 48 h
786-0 renal = system: 786-0 renal
MOLT-4 leukemia = system: MOLT-4 leukemia
OVCAR-5 ovarian = system: OVCAR-5 ovarian
SNB-19 CNS = system: SNB-19 CNS
SK-OV-3 ovarian = system: SK-OV-3 ovarian
K-562 leukemia = system: K-562 leukemia
NCI-H23 lung = system: NCI-H23 lung
OVCAR-8 ovarian = system: OVCAR-8 ovarian
ACHN renal = system: ACHN renal
KM12 colon = system: KM12 colon

| SMILES | TGI (786-0 renal) | TGI (MOLT-4 leukemia) | TGI (OVCAR-5 ovarian) | TGI (SNB-19 CNS) | TGI (SK-OV-3 ovarian) | TGI (K-562 leukemia) | TGI (NCI-H23 lung) | TGI (OVCAR-8 ovarian) | TGI (ACHN renal) | GI50 (786-0 renal) | GI50 (KM12 colon) | TGI (KM12 colon) | GI50 (OVCAR-5 ovarian) | GI50 (SNB-19 CNS) | GI50 (SK-OV-3 ovarian) | GI50 (NCI-H23 lung) | GI50 (OVCAR-8 ovarian) | GI50 (ACHN renal) | GI50 (MOLT-4 leukemia) | GI50 (K-562 leukemia) |
| --- | --- | --- | --- | --- | --- | --- | --- | --- | --- | --- | --- | --- | --- | --- | --- | --- | --- | --- | --- | --- |
| CC1CC(=O)Nc2ccc(Cl)cc2N1C(=O)CN1CCC(CCCCN(C)C)CC1 (configuration not stated) | > 100 µM | > 100 µM | > 100 µM | > 100 µM | > 100 µM | > 100 µM | > 100 µM | > 100 µM | > 100 µM | – | – | – | – | – | – | – | – | – | – | – |
| CN1CCN(CCCOc2cccc3nc(Nc4cc(Cl)cc(Cl)c4)ccc23)CC1 | 2.94 µM | – | 3.43 µM | 3.48 µM | 3.3 µM | – | 3.32 µM | 3.48 µM | 3.09 µM | 1.49 µM | 1.72 µM | 3.29 µM | 1.79 µM | 1.89 µM | 1.76 µM | 1.72 µM | 1.94 µM | 1.66 µM | – | – |
| CCCCCC/C=C/C#CCCCCCCCC(=O)O | > 100 µM | > 100 µM | > 100 µM | > 100 µM | > 100 µM | > 100 µM | > 100 µM | > 100 µM | > 100 µM | – | – | > 100 µM | – | – | – | – | – | – | – | – |
| Nc1nc(=O)n(C2CC(O)C(CO)O2)cc1F (configuration not stated) | > 100 µM | – | > 100 µM | – | > 100 µM | > 100 µM | > 28.5 µM | > 100 µM | > 100 µM | 0.0589 µM | > 66.3 µM | > 100 µM | > 100 µM | – | > 100 µM | < 0.0332 µM | 0.0594 µM | 0.00802 µM and < 0.0108 µM | 0.00502 µM | > 100 µM |
| O=C1OC(CC(=O)c2ccc(F)cc2)C(Cl)=C1Cl (configuration not stated) | 34.3 µM | > 100 µM | 44.9 µM | 47 µM | > 100 µM | > 100 µM | 93.5 µM | 40.2 µM | > 100 µM | – | – | 33 µM | – | – | – | – | – | – | – | – |
| O=C(CCC(=O)Nc1ccccc1C(F)(F)F)N/N=C1\C(=N\NC(=O)CCC(=O)Nc2ccccc2C(F)(F)F)C(c2ccc3c(c2)OCO3)Oc2ccccc21 (configuration not stated) | > 100 µM | > 100 µM | > 100 µM | > 100 µM | > 82.5 µM | > 100 µM | > 100 µM | > 100 µM | > 100 µM | – | – | > 100 µM | – | – | – | – | – | – | – | – |
| COc1ccccc1-n1cnc(N)c1C(=O)c1cc(OC)c(OC)c(OC)c1 | > 100 µM | > 100 µM | > 100 µM | > 100 µM | – | > 100 µM | > 100 µM | > 100 µM | > 100 µM | 5.41 µM | 3.22 µM | > 100 µM | 62.5 µM | 4 µM | – | 9.5 µM | 5.85 µM | 5.19 µM | 4.82 µM | 2.12 µM |
| COc1ccc(C(=O)/C=C/c2sc(Cl)nc2Cl)cc1 | 4.94 µM | 13.6 µM | 13.3 µM | 4.25 µM | 23.7 µM | > 100 µM | 3.39 µM | 13.9 µM | 3.05 µM | 1.94 µM | 2.75 µM | 7.54 µM | 3.01 µM | 1.99 µM | 7.68 µM | 0.973 µM | 1.05 µM | 1.66 µM | 0.369 µM | 0.328 µM |
| c1ccc2c(c1)[nH]c1cnc3c4ncccc4[nH]c3c12 | > 100 µM | 97.6 µM | > 100 µM | > 100 µM | > 100 µM | > 100 µM | > 100 µM | > 100 µM | > 100 µM | – | – | > 100 µM | – | – | – | – | – | – | – | – |
| O=C1c2c(O)cccc2C(C(=O)CCCCCC(=O)C2c3cccc(O)c3C(=O)c3c(O)cccc32)c2cccc(O)c21 | 21.6 µM | 25 µM and 27.6 µM | 7.43 µM and 14.4 µM | 3.9 µM and 6.97 µM | 4.15 µM and 13.8 µM | 25 µM and 12.5 µM | 1.88 µM and 12.9 µM | 8.5 µM and 15.6 µM | 5.71 µM and 16.6 µM | – | 1.65 µM | 3.71 µM and 5.6 µM | 6.96 µM | 2.05 µM | 6.3 µM | 3.94 µM | 6.8 µM | 9.48 µM | 10.8 µM | 2.86 µM |
| O=C(Nc1ccccc1[N+](=O)[O-])/C(=N/Nc1cccc(Cl)c1)c1c(O)c2ccccc2oc1=O | > 100 µM | > 100 µM | > 100 µM | > 100 µM | > 100 µM | > 100 µM | > 100 µM | – | > 100 µM | – | – | > 100 µM | – | – | – | – | – | – | – | – |
| CCn1cnc(C[C@H](NC(=O)[C@H](CCCCNC(=O)Nc2cc(C(F)(F)F)cc(C(F)(F)F)c2)NC(=O)Nc2cc(C(F)(F)F)cc(C(F)(F)F)c2)C(=O)OC)c1 | > 10 µM | – | > 10 µM | > 10 µM | > 10 µM | – | > 10 µM | > 10 µM | > 10 µM | 8.78 µM | 4.41 µM | > 10 µM | > 10 µM | 5.1 µM | > 10 µM | 5.98 µM | 5.02 µM | 5.61 µM | – | – |
| NC1=NN(c2ccccc2)C(=O)C1C(=O)C(=O)Nc1ccc(Cl)cc1 (configuration not stated) | > 100 µM | > 100 µM | > 100 µM | – | > 100 µM | > 100 µM | > 100 µM | > 100 µM | > 100 µM | – | – | > 100 µM | – | – | – | – | – | – | – | – |
| O=S(=O)(C1=CC(S(=O)(=O)c2ccccc2)COC1)c1ccccc1 (configuration not stated) | > 100 µM | > 100 µM | – | > 100 µM | > 100 µM | > 100 µM | > 100 µM | > 100 µM | > 100 µM | – | – | > 100 µM | – | – | – | – | – | – | – | – |
| Cc1ccc2nc(NC(=O)C(=O)C(C(=O)c3ccc4ccccc4c3)C3OC(=O)c4ccccc43)sc2c1 (configuration not stated) | 18.5 µM | – | 23.9 µM | 26.4 µM | > 100 µM | – | 18.3 µM | 62.1 µM | 46.1 µM | – | – | 37.4 µM | – | – | – | – | – | – | – | – |
| CC(=O)Nc1ccccc1-c1nc2ccccc2nc1-c1ccccc1 | > 100 µM | > 100 µM | – | > 100 µM | > 100 µM | > 100 µM | > 100 µM | > 100 µM | > 100 µM | – | – | > 100 µM | – | – | – | – | – | – | – | – |
| CCN(C(=O)N1CCN(c2cc3c(cc2F)c(=O)c(C(=O)O)cn3C2CC2)CC1)c1nc(-c2ccccc2)cs1 | 15.5 µM | – | > 100 µM | > 100 µM | 6.86 µM | > 100 µM | 29.5 µM | > 100 µM | 9.47 µM | 2.47 µM | 2.94 µM | > 100 µM | 3.27 µM | 3.94 µM | 2.1 µM | 2.79 µM | 3.33 µM | 1.69 µM | – | 3.2 µM |

From PubChem BioAssay (NCI)
